Measured values: the supplement of paper PMC10307832

Tests used:
Assay in all cases: relative viability (nuclei count vs DMSO), 5 days (fraction); higher = more cells survive
ALW-II-49-7 + Tozasertib = compound: Cc1ccc(C(=O)Nc2cccc(C(F)(F)F)c2)cc1Nc1cncc(C(N)=O)c1 [ALW-II-49-7] + Cc1cc(Nc2cc(N3CCN(C)CC3)nc(Sc3ccc(NC(=O)C4CC4)cc3)n2)n[nH]1 [Tozasertib] (partner 0.1 µM)
Outline: (§1)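 Lung cancer cell lines were pin-tool dosed in 1536-well plates on the day after seeding, with either a lone drug or a fixed anchor-drug dose plus five library-drug doses (not always all listed) in √10 steps. Nuclei were counted on 4× images after 5 days. Relative viability is the ratio of treated-well to vehicle-well nuclei counts, with each value a median of duplicate plates.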

Dasatinib + Lapatinib = compound: Cc1nc(Nc2ncc(C(=O)Nc3c(C)cccc3Cl)s2)cc(N2CCN(CCO)CC2)n1 [Dasatinib] + CS(=O)(=O)CCNCc1ccc(-c2ccc3ncnc(Nc4ccc(OCc5cccc(F)c5)c(Cl)c4)c3c2)o1 [Lapatinib] (partner 2 µM)
Outline: as §1

Dasatinib + Decitabine = compound: Cc1nc(Nc2ncc(C(=O)Nc3c(C)cccc3Cl)s2)cc(N2CCN(CCO)CC2)n1 [Dasatinib] + Nc1ncn([C@H]2C[C@H](O)[C@@H](CO)O2)c(=O)n1 [Decitabine] (partner 2 µM)
Outline: as §1

Dasatinib + Vorinostat = compound: Cc1nc(Nc2ncc(C(=O)Nc3c(C)cccc3Cl)s2)cc(N2CCN(CCO)CC2)n1 [Dasatinib] + O=C(CCCCCCC(=O)Nc1ccccc1)NO [Vorinostat] (partner 1 µM)
Outline: as §1

| Cell Line | relative viability (ALW-II-49-7 + Tozasertib; first compound 0.08 µM) | relative viability (ALW-II-49-7 + Tozasertib; first compound 0.253 µM) | relative viability (ALW-II-49-7 + Tozasertib; first compound 0.8 µM) | relative viability (ALW-II-49-7 + Tozasertib; first compound 2.53 µM) | relative viability (ALW-II-49-7 + Tozasertib; first compound 8 µM) | relative viability (Dasatinib + Lapatinib; first compound 0.005 µM) | relative viability (Dasatinib + Lapatinib; first compound 0.01581 µM) | relative viability (Dasatinib + Lapatinib; first compound 0.05 µM) | relative viability (Dasatinib + Lapatinib; first compound 0.1581 µM) | relative viability (Dasatinib + Lapatinib; first compound 0.5 µM) | relative viability (Dasatinib + Decitabine; first compound 0.005 µM) | relative viability (Dasatinib + Decitabine; first compound 0.01581 µM) | relative viability (Dasatinib + Decitabine; first compound 0.05 µM) | relative viability (Dasatinib + Decitabine; first compound 0.1581 µM) | relative viability (Dasatinib + Decitabine; first compound 0.5 µM) | relative viability (Dasatinib + Vorinostat; first compound 0.005 µM) | relative viability (Dasatinib + Vorinostat; first compound 0.01581 µM) | relative viability (Dasatinib + Vorinostat; first compound 0.05 µM) | relative viability (Dasatinib + Vorinostat; first compound 0.1581 µM) | relative viability (Dasatinib + Vorinostat; first compound 0.5 µM) |
| --- | --- | --- | --- | --- | --- | --- | --- | --- | --- | --- | --- | --- | --- | --- | --- | --- | --- | --- | --- | --- |
| NCI-H2405 | 0.73 | 0.692 | 0.687 | 0.642 | 0.547 | 0.684 | 0.81 | 0.465 | 0.222 | 0.17 | 0.693 | 0.489 | 0.45 | 0.293 | 0.219 | 0.838 | 0.597 | 0.427 | 0.188 | 0.227 |
| NCI-H3122 | 0.437 | 0.202 | 0.371 |  | 0.373 | 0.999 | 1.02 | 1.02 | 1.01 | 0.84 | 0.503 | 0.476 | 0.536 | 0.428 | 0.33 | 1.04 | 0.949 | 0.986 | 1.02 | 0.614 |
| PC-3 [JPC-3] | 0.653 | 0.946 | 0.867 | 0.776 | 0.843 | 0.422 | 0.393 | 0.444 | 0.331 | 0.335 | 0.799 | 0.802 | 0.81 | 0.755 | 0.623 | 0.86 | 0.953 | 0.787 | 0.522 | 0.475 |
| PC-14 | 0.584 | 0.657 | 0.503 | 0.288 | 0.492 | 0.29 | 0.282 | 0.242 | 0.208 | 0.0848 | 0.301 | 0.258 | 0.215 | 0.186 | 0.0693 | 0.653 | 0.699 | 0.562 | 0.318 | 0.0563 |
| RERF-LC-KJ | 0.442 | 0.524 | 0.461 | 0.506 | 0.321 | 0.819 | 0.758 | 0.84 | 0.813 | 0.809 | 0.701 | 0.621 | 0.552 | 0.629 | 0.627 | 0.667 | 0.602 | 0.585 | 0.491 | 0.416 |
| SK-LU-1 | 0.323 | 0.391 | 0.295 | 0.289 | 0.242 | 0.467 | 0.53 | 0.424 | 0.305 | 0.298 | 0.609 | 0.449 | 0.437 | 0.282 | 0.24 | 0.686 | 0.647 | 0.473 | 0.278 | 0.246 |
| SK-MES-1 | 0.878 | 0.986 | 0.843 | 0.844 | 0.568 | 0.467 | 0.482 | 0.399 | 0.315 | 0.258 | 0.409 | 0.364 | 0.265 | 0.169 | 0.136 | 1.19 | 0.961 | 0.977 | 0.503 | 0.206 |
| SW 1573 | 0.187 | 0.248 | 0.186 | 0.196 | 0.151 | 1.15 | 0.967 | 1.01 | 0.738 | 0.826 | 0.431 | 0.428 | 0.381 | 0.288 | 0.405 | 0.968 |  | 0.649 | 0.538 | 0.491 |
